Earlier results in patent US20220184087A1, “METHODS AND COMPOSITIONS RELATING TO TREATMENT OF CANCER” (The Penn State Research Foundation, priority 2019, published 2022).

Legend:
[1] = tested on: murine head and neck cancer cells
[2] = tested on: human head and neck cancer cells
MDM4 = biological target: T1, MDM4 (Homo sapiens, UniProt O15151); details: within p53-binding pocket
T1 sequence (O15151 1-490): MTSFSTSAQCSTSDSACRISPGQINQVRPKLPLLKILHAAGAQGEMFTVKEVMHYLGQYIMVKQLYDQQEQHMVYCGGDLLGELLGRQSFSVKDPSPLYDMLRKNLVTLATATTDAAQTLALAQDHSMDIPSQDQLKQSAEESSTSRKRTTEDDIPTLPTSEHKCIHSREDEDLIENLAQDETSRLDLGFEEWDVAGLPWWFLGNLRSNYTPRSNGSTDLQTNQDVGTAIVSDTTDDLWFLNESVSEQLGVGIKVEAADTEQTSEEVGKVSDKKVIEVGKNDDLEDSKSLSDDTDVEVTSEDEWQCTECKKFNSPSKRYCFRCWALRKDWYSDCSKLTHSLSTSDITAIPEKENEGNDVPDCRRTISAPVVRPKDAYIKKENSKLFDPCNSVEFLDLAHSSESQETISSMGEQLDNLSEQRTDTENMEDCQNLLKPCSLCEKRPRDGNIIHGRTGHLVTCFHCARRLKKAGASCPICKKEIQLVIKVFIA

melanoma = melanoma patients

C=CCn1c(=O)c2cnc(Nc3ccc(N4CCN(C)CC4)cc3)nc2n1-c1cccc(C(C)(C)O)n1 [MK1775, 2-allyl-1-(6-(2-hydroxypropan-2-yl)pyridin-2-yl)-6-((4-(4-methylpiperazin-1-yl)phenyl)amino)-1H-pyrazolo[3,4-d]pyrimidin-3(2H)-one]
sensitization to NK lysis [1]: sensitized | sensitization to NK lysis [2]: sensitized

CCOc1cc(/C=C2/C(=O)N(c3ccccc3)N=C2C)cc(Cl)c1OCC(=O)OC [SJ-172550]
binding affinity to MDM4 (MDM4): high affinity

nivolumab: anti-PD-1 immune checkpoint inhibitor antibody
median PFS (melanoma): 6.9 months

ipilimumab: anti-CTLA4 immune checkpoint inhibitor antibody
median PFS (melanoma): 2.9 months
